ChEMBL document CHEMBL4706640, “Structure-Based Drug Design and Synthesis of PI3Kα-Selective Inhibitor (PF-06843195)” (J Med Chem, 2021)
Values after ≈ are worked out from the molar mass of the structure shown.

Columns and labels:
[1] = target: PI3K p110 beta/p85 alpha (Homo sapiens, UniProt P42338); test: Inhibition of recombinant human PI3K p110beta/p85alpha using phosphatidylinositol 4,5-bisphosphate as substrate preincubated for 15 mins followed by addition of ATP and measured after 30 mins by fluorescence polarisation assay; type: protein-complex assay
PI3K p110 beta/p85 alpha, sequence (P27986 whole entry): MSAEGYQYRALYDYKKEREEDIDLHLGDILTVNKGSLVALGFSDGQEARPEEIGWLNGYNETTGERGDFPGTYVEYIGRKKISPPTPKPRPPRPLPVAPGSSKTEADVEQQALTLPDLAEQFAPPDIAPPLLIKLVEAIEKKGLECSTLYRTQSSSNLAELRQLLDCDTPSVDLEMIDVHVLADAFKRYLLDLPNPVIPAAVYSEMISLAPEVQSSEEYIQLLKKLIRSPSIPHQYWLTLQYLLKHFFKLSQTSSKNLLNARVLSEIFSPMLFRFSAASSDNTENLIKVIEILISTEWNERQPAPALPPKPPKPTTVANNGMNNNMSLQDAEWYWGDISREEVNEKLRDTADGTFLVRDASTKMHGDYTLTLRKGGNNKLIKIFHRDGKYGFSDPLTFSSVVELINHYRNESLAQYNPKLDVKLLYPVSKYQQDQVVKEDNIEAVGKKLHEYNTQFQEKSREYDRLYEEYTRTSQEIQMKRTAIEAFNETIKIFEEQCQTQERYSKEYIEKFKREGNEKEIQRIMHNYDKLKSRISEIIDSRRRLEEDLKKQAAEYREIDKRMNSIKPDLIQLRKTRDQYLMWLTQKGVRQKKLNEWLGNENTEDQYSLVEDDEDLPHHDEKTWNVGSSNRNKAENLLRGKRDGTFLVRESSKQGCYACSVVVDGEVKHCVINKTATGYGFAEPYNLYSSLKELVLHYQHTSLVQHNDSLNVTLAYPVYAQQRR
PI3K p110 beta/p85 alpha, sequence (P42338 whole entry): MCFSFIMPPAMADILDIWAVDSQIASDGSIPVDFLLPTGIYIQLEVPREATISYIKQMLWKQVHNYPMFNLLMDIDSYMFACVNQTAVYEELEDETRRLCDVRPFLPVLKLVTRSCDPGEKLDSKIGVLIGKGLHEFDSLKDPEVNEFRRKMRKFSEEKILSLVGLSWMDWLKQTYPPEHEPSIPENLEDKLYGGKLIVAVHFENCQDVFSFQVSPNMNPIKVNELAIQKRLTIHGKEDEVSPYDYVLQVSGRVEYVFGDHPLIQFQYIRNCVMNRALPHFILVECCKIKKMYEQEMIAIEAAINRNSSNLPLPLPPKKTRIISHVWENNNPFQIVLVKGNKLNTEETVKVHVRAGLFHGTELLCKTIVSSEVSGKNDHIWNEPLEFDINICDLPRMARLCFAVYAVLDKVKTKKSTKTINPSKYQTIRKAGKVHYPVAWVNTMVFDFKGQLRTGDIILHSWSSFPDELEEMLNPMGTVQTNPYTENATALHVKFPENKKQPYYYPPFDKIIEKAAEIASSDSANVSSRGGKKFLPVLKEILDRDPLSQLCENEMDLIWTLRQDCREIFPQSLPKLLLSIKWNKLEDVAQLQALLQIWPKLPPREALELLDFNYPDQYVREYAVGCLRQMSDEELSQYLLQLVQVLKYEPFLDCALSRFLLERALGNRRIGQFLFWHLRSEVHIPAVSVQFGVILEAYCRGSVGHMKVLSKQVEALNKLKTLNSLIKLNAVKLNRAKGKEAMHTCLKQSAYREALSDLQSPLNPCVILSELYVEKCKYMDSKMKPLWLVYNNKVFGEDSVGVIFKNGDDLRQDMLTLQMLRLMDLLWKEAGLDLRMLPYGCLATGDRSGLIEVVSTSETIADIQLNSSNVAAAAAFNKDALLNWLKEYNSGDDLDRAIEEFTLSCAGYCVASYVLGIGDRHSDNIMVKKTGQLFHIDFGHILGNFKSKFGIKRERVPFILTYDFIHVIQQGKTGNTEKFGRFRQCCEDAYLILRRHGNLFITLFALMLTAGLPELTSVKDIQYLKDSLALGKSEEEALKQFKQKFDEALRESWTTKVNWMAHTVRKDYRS

[2] = Passive permeability of compound in RRCK cells; type: ADME, cell-based, Canis lupus familiaris, MDCKII-LE; settings: dog, MDCK; read-out: permeability
[3] = target: T1, Phosphatidylinositol 4,5-bisphosphate 3-kinase catalytic subunit delta isoform (Homo sapiens, UniProt O00329); test: Inhibition of recombinant human N-terminal Myr signal and C-terminal Flag-tagged PI3K p110delta expressed in rat Rat1 cells; type: cell-based
T1 sequence (O00329 whole entry): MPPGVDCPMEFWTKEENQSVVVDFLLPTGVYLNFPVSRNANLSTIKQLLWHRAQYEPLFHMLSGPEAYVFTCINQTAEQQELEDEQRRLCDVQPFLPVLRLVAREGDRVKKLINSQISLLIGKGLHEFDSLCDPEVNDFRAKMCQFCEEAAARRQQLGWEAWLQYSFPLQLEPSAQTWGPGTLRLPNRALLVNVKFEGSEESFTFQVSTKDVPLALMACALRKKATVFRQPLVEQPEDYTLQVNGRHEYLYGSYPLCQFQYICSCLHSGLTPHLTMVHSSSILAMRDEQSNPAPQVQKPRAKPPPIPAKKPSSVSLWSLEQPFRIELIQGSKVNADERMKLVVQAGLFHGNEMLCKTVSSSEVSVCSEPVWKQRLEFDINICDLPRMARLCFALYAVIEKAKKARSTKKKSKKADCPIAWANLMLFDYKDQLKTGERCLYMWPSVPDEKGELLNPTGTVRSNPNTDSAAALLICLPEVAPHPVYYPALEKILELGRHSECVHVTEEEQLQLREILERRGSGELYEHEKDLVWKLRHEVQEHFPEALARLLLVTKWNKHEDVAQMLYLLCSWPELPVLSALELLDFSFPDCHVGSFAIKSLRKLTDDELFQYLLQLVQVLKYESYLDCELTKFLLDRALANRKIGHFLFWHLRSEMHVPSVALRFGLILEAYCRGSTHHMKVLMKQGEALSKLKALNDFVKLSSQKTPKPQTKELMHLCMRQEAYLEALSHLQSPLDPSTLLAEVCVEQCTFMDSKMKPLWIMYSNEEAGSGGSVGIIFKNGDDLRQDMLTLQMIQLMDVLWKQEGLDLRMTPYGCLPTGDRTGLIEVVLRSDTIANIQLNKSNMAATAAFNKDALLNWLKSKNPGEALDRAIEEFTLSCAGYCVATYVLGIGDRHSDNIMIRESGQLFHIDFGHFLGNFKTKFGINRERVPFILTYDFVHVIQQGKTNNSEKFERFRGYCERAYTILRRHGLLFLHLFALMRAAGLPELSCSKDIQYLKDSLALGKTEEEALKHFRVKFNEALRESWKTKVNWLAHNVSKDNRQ

[4] = Kinetic solubility of compound; type: physicochemical; settings: read-out: Kinetic_solubility
[5] = target: PI3-kinase p110-alpha/p85-alpha (Homo sapiens, UniProt P42336); test: Inhibition of recombinant human full-length PI3K p110alpha/p85alpha (322 to 600) expressed in baculovirus infected Sf21 cells using phosphatidylinositol 4,5-bisphosphate as substrate preincubated for 15 mins followed by addition of ATP and measured after 30 mins by fluorescence polarisation assay
PI3-kinase p110-alpha/p85-alpha, sequence (P27986 whole entry): as the sequence (P27986 whole entry) above
PI3-kinase p110-alpha/p85-alpha, sequence (P42336 whole entry): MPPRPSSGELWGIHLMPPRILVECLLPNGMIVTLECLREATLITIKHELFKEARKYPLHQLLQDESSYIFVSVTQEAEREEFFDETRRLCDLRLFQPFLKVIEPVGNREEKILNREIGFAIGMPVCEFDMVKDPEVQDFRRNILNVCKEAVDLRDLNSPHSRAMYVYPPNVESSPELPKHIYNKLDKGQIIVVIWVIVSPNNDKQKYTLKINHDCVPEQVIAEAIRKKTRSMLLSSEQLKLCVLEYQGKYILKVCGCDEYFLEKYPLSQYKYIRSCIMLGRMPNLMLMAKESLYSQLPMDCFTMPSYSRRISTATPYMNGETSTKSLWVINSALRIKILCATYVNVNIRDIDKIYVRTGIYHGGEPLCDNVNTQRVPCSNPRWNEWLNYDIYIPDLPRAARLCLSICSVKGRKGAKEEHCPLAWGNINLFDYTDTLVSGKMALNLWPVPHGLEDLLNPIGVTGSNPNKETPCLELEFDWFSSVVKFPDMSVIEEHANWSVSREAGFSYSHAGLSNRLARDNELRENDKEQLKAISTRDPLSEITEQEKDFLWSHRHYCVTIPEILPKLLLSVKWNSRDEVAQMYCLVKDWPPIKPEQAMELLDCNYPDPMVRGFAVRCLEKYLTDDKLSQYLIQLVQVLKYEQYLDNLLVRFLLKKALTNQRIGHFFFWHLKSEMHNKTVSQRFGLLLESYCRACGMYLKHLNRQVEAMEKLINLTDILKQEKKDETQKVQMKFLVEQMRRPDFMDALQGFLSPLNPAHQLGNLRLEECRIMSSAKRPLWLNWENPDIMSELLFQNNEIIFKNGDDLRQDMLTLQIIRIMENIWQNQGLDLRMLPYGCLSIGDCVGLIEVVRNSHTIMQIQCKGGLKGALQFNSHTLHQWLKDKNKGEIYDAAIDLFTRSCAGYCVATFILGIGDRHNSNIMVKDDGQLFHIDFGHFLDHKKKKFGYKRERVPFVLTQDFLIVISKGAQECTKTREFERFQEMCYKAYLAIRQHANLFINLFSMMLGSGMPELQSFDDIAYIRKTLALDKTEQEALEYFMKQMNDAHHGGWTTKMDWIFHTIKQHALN

[6] = Apparent intrinsic clearance in human liver microsomes; type: ADME, Microsome; settings: read-out: CLH(app)
[7] = Distribution coefficient, logD of compound at pH 7.4; type: physicochemical; settings: octanol/water
[8] = target: PI3-kinase p110-delta/p85-alpha (Homo sapiens, UniProt O00329); test: Inhibition of recombinant human PI3K p110delta/p85alpha using phosphatidylinositol 4,5-bisphosphate as substrate preincubated for 15 mins followed by addition of ATP and measured after 30 mins by fluorescence polarisation assay; type: protein-complex assay
PI3-kinase p110-delta/p85-alpha, sequence (P27986 whole entry, one chain of several, canonical isoform): as the sequence (P27986 whole entry) above

[9] = target: Phosphatidylinositol 4,5-bisphosphate 3-kinase catalytic subunit beta isoform (Homo sapiens, UniProt P42338); test: Inhibition of recombinant human N-terminal Myr signal and C-terminal Flag-tagged PI3K p110beta expressed in rat Rat1 cells; type: cell-based
Phosphatidylinositol 4,5-bisphosphate 3-kinase catalytic subunit beta isoform, sequence (P42338 whole entry, canonical isoform): as the sequence (P42338 whole entry) above

[10] = target: Phosphatidylinositol 4,5-bisphosphate 3-kinase catalytic subunit alpha isoform (Homo sapiens, UniProt P42336); test: Inhibition of recombinant human N-terminal Myr signal and C-terminal Flag-tagged PI3K p110alpha expressed in rat Rat1 cells; type: cell-based
Phosphatidylinositol 4,5-bisphosphate 3-kinase catalytic subunit alpha isoform, sequence (P42336 whole entry, canonical isoform): as the sequence (P42336 whole entry) above

| Structure (SMILES) | Ki [1] [nM] | Papp [2] [×10⁻⁶ cm/s] | IC50 [3] [nM] | solubility kinetic [4] [µM] | Ki [5] [nM] | microsomal CLint [6] [µL/min/mg] | logD [7] | Ki [8] [nM] | IC50 [9] [nM] | IC50 [10] [nM] |
| --- | --- | --- | --- | --- | --- | --- | --- | --- | --- | --- |
| COC(=O)N1CC[C@](CO)(Nc2nc(N3CCOCC3)nc(-c3cnc(N)nc3)c2F)C1 | 5 | 6.2 | 300 | 42 (≈ 18.8 µg/mL) | < 0.018 | < 8 | 1.6 | < 0.28 | 360 | 47 |
| Nc1ncc(-c2nc(N3CCOCC3)nc3c2CCN3[C@H]2CCNC2)cn1 | 17 | 1.9 |  | 430 (≈ 158 µg/mL) | 2.1 | 13 | -0.74 | 40 |  |  |
| CNS(=O)(=O)N1CC[C@](C)(N2CCc3c(-c4cnc(N)nc4)nc(N4CCOCC4)nc32)C1 | 4.9 | 24 | 44 | 510 (≈ 243 µg/mL) | < 0.018 | 20 | 1.9 | < 0.28 | 170 | 27 |
| CS(=O)(=O)N1CC[C@](CO)(Nc2cc(-c3cnc(N)nc3)nc(N3CCOCC3)n2)C1 | 11 | 0.22 | > 10000 |  |  | < 8 | 0.79 | < 0.28 | > 10000 | 1300 |
| CC(=O)N1CC[C@@](C)(N2CCc3c(-c4cnc(N)nc4)nc(N4CCOCC4)nc32)C1 | 6.7 | 16 | 74 | 520 (≈ 221 µg/mL) | 0.078 | < 8 | 1.6 | 1.2 | 95 | 35 |
| COC(=O)N1CC[C@H](N2CCc3c(-c4cnc(N)nc4)nc(N4CCOCC4)nc32)C1 | 36 | 20 |  | 56 (≈ 23.9 µg/mL) |  | < 8 | 1.9 | 9.6 |  |  |
| Nc1ncc(-c2ccnc(N3CCOCC3)n2)cn1 | 15 | 28 |  | 210 (≈ 54.2 µg/mL) |  |  | 1.5 | 81 |  |  |
| CNC(=O)N1CC[C@H](N2CCc3c(-c4cnc(N)nc4)nc(N4CCOCC4)nc32)C1 | 24 | 6.1 |  | 390 (≈ 166 µg/mL) | 0.58 | < 8 | 1.3 | 3.7 |  |  |
| COC(=O)N1CC[C@](C)(N2CCc3c(-c4cnc(N)nc4)nc(N4CCOCC4)nc32)C1 | 0.79 | 27 | 13 | 490 (≈ 216 µg/mL) | < 0.023 | 29 | 2.6 | < 0.28 | 45 | 5 |
| C[C@]1(N2CCc3c(-c4cnc(N)nc4)nc(N4CCOCC4)nc32)CCN(S(C)(=O)=O)C1 | 9.1 | 26 | 76 | 540 (≈ 249 µg/mL) | < 0.029 | 36 | 1.6 | 0.26 | 150 | 34 |
| CC(C)(C)OC(=O)N1CC[C@](CO)(Nc2cc(-c3cnc(N)nc3)nc(N3CCOCC3)n2)C1 | 54 | 18 | 1200 | 460 (≈ 217 µg/mL) |  | 140 | 2.7 | 2.1 | 4600 |  |
| CC(C)(O)C(=O)N1CC[C@](C)(N2CCc3c(-c4cnc(N)nc4)nc(N4CCOCC4)nc32)C1 | 46 | 25 | 150 | 460 (≈ 216 µg/mL) | 0.03 | 16 | 2 | 6.7 | 1000 | 53 |
| COC(=O)N1CC[C@](CO)(Nc2cc(-c3cnc(N)nc3)nc(N3CCOCC3)n2)C1 | 1.7 | 1 | 2300 | 19 (≈ 8.18 µg/mL) |  | 13 | 1.5 | < 0.28 | 1800 | 91 |
| Nc1ncc(-c2cc(N[C@@]3(CO)CCN(C(=O)OCC(F)F)C3)nc(N3CCOCC3)n2)cn1 | 4 | 3.9 | 1000 | 9.9 (≈ 4.76 µg/mL) |  | 17 | 1.7 | < 0.28 | 1900 | 52 |
| CC(C)C(=O)N1CC[C@](CO)(Nc2cc(-c3cnc(N)nc3)nc(N3CCOCC3)n2)C1 | 19 | 0.19 | > 10000 | 540 (≈ 239 µg/mL) |  | 17 | 1.4 | < 0.28 | > 10000 |  |
| CS(=O)(=O)N1CC[C@H](N2CCc3c(-c4cnc(N)nc4)nc(N4CCOCC4)nc32)C1 | 16 | 18 |  | 61 (≈ 27.2 µg/mL) | 0.15 | < 8 | 1.3 | 4.5 |  |  |
| CC(C)(C)OC(=O)N1CC[C@](C)(Nc2cc(-c3cnc(N)nc3)nc(N3CCOCC3)n2)C1 | 68 | 11 | 460 | 270 (≈ 123 µg/mL) |  | 110 | 3.8 | 5.1 | 5000 | 110 |
| CNC(=O)N1CC[C@](C)(N2CCc3c(-c4cnc(N)nc4)nc(N4CCOCC4)nc32)C1 | 24 | 13 | 110 | 460 (≈ 202 µg/mL) | 0.084 | < 11 | 1.7 | 0.72 | 410 | 73 |
